Measured values published in US11597724B2, “Herbicidally active 3-phenylisoxazoline-5-carboxamides of tetrahydro and dihydrofuran carboxylic acids and esters” (Bayer Aktiengesellschaft, priority 2017, dated 2023).

Legend:
Type in all cases: in vivo
Pharbitis purpurea = experiment: Post-emergence herbicidal activity against PHBPU; conditions: dosage 320 g/ha, rated about 3 weeks after treatment; for pest or weed control at 320 g/ha: Ipomoea purpurea, 504 h
Procedure, shortened: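 Greenhouse-grown plants sprayed post-emergence at the one-leaf stage, 2 to 3 weeks after sowing, with WP or EC formulations plus 0.5% additive at 600 l/ha water. Activity rated visually after about 3 weeks versus untreated controls (100% = plants dead, 0% = like control).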

Alopecurus myosuroides = experiment: Pre-emergence herbicidal activity against ALOMY; conditions: dosage 80 g/ha, scored visually after about 3 weeks vs untreated controls (100% = plants have died, 0% = like control plants); for pest or weed control at 80 g/ha: Alopecurus myosuroides, 504 h
Description: (§1) 1. Pre-Emergence Herbicidal Action and Crop Plant Compatibility Seeds of monocotyledonous and dicotyledonous weed plants and crop plants are placed in plastic or wood fiber pots and covered with soil. The compounds of the invention, formulated in the form of wettable powders (WP) or as emulsion concentrates (EC), are then applied onto the surface of the covering soil as aqueous suspension or emulsion with addition of 0.5% additive at a water application rate of 600 l/ha (converted). After the treatment, the pots are placed in a greenhouse and kept under good growth conditions for the trial plants. After about 3 weeks, the effect of the preparations is scored visually in comparison with untreated controls as percentages. For example, 100% activity=the plants have died, 0% activity=like control plants. ABUTH: Abutilon theophrasti ALOMY: Alopecurus myosuroides

Viola tricolor = experiment: Post-emergence herbicidal activity against VIOTR; conditions: dosage 320 g/ha, rated about 3 weeks after treatment; for pest or weed control at 320 g/ha: Viola tricolor, 504 h
Procedure, shortened: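 Greenhouse plants in sandy loam treated at one-leaf stage, 2 to 3 weeks after sowing, by spraying WP or EC formulations with 0.5% additive at 600 l/ha water. Activity rated visually after about 3 weeks versus untreated controls, 100% = plants dead, 0% = like control.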

Hordeum murinum = experiment: Post-emergence herbicidal activity against HORMU; conditions: dosage 320 g/ha; for pest or weed control at 320 g/ha: Hordeum murinum, 504 h
Procedure, shortened: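 Greenhouse pot plants sprayed post-emergence at one-leaf stage (2-3 weeks after sowing) with WP or EC formulations, 0.5% additive, 600 l/ha water. Visual rating about 3 weeks later versus untreated controls: 100% = plants dead, 0% = like control.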

Amaranthus retroflexus = experiment: Pre-emergence herbicidal activity against AMARE; conditions: dosage 80 g/ha; for pest or weed control at 80 g/ha: Amaranthus retroflexus, 504 h
Description: as §1, with “AMARE: Amaranthus retroflexus AVEFA: Avena fatua” for “ABUTH: Abutilon theophrasti ALOMY: Alopecurus myosuroides”

Setaria viridis = experiment: Post-emergence herbicidal activity against SETVI; conditions: dosage 320 g/ha, rated about 3 weeks after treatment; for pest or weed control at 320 g/ha: Setaria viridis, 504 h
Procedure, shortened: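 Greenhouse weeds in sandy loam were sprayed at the one-leaf stage, 2–3 weeks after sowing, with WP or EC formulations plus 0.5% additive at 600 l/ha water. About 3 weeks later, damage was rated visually against untreated controls, where 100% means plants dead and 0% means like control.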

`C=C[C@]1(C(=O)N[C@H]2CO[C@@H](C(=O)OC)C2)CC(c2cc(F)cc(F)c2)=NO1` (mixture of isomers) [I-10, methyl cis-4-[[(5S)-3-(3,5-difluorophenyl)-5-vinyl-4H-isoxazole-5-carbonyl]amino]tetrahydrofuran-2-carboxylate] showed a pest or weed control at 320 g/ha (Pharbitis purpurea) of 90%, a pest or weed control at 80 g/ha (Alopecurus myosuroides) of 100% and a pest or weed control at 320 g/ha (Viola tricolor) of 80%. For the same compound, the pest or weed control at 320 g/ha (Hordeum murinum) was 100%, the pest or weed control at 80 g/ha (Amaranthus retroflexus) was 90% and the pest or weed control at 320 g/ha (Setaria viridis) was 90%.
With `C=C[C@]1(C(=O)N[C@H]2CO[C@@H](C(=O)OCC)C2)CC(c2cc(F)cc(F)c2)=NO1` (mixture of isomers) [I-35, ethyl cis-4-[[(5S)-3-(3,5-difluorophenyl)-5-vinyl-4H-isoxazole-5-carbonyl]amino]tetrahydrofuran-2-carboxylate] the pest or weed control at 320 g/ha (Pharbitis purpurea) was 90%, the pest or weed control at 80 g/ha (Alopecurus myosuroides) was 100% and the pest or weed control at 320 g/ha (Viola tricolor) was 80%. It also gave a pest or weed control at 320 g/ha (Hordeum murinum) of 100%, a pest or weed control at 80 g/ha (Amaranthus retroflexus) of 100% and a pest or weed control at 320 g/ha (Setaria viridis) of 90%.
Compound `C=C[C@]1(C(=O)N[C@H]2CO[C@@H](C(=O)OC(C)C)C2)CC(c2cc(F)cc(F)c2)=NO1` (mixture of isomers) [I-36, isopropyl cis-4-[[(5S)-3-(3,5-difluorophenyl)-5-vinyl-4H-isoxazole-5-carbonyl]amino]tetrahydrofuran-2-carboxylate] has a pest or weed control at 320 g/ha (Pharbitis purpurea) of 80%, a pest or weed control at 80 g/ha (Alopecurus myosuroides) of 100% and a pest or weed control at 320 g/ha (Viola tricolor) of 90%. The pest or weed control at 320 g/ha (Hordeum murinum) was 90%, the pest or weed control at 80 g/ha (Amaranthus retroflexus) was 100% and the pest or weed control at 320 g/ha (Setaria viridis) was 80%.
Compound `C=C[C@]1(C(=O)N[C@H]2CO[C@@H](C(=O)OCc3ccccc3)C2)CC(c2cc(F)cc(F)c2)=NO1` (mixture of isomers) [I-37, benzyl cis-4-[[(5S)-3-(3,5-difluorophenyl)-5-vinyl-4H-isoxazole-5-carbonyl]amino]tetrahydrofuran-2-carboxylate] has a pest or weed control at 320 g/ha (Pharbitis purpurea) of 90%, a pest or weed control at 80 g/ha (Alopecurus myosuroides) of 100% and a pest or weed control at 320 g/ha (Viola tricolor) of 80%. The pest or weed control at 320 g/ha (Hordeum murinum) was 80%, the pest or weed control at 80 g/ha (Amaranthus retroflexus) was 100% and the pest or weed control at 320 g/ha (Setaria viridis) was 80%.
For `C=C[C@]1(C(=O)N[C@H]2CO[C@@H](C(=O)OC(C)(C)C)C2)CC(c2cc(F)cc(F)c2)=NO1` (mixture of isomers) [I-38, tert-butyl cis-4-[[(5S)-3-(3,5-difluorophenyl)-5-vinyl-4H-isoxazole-5-carbonyl]amino]tetrahydrofuran-2-carboxylate], the pest or weed control at 320 g/ha (Pharbitis purpurea) was 90%, the pest or weed control at 80 g/ha (Alopecurus myosuroides) was 100% and the pest or weed control at 320 g/ha (Viola tricolor) was 80%. It also gave a pest or weed control at 320 g/ha (Hordeum murinum) of 90%, a pest or weed control at 80 g/ha (Amaranthus retroflexus) of 100% and a pest or weed control at 320 g/ha (Setaria viridis) of 100%.
In the case of `CC1(C(=O)NC2COC(C(=O)O)C2)CC(c2cc(F)cc(F)c2)=NO1` (mixture of isomers) [I-41], the “Post-emergence herbicidal activity against PHBPU in %” value (Pharbitis purpurea) is reported as 90%, the “Pre-emergence herbicidal activity against ALOMY in %” value (Alopecurus myosuroides) is reported as 100% and the “Post-emergence herbicidal activity against VIOTR in %” value (Viola tricolor) is reported as 80%. The “Post-emergence herbicidal activity against HORMU in %” value (Hordeum murinum) was 100%, the “Pre-emergence herbicidal activity against AMARE in %” value (Amaranthus retroflexus) was 90% and the “Post-emergence herbicidal activity against SETVI in %” value (Setaria viridis) was 90%.
`CC(C)(C)OC(=O)C1CC(NC(=O)C2(C)CC(c3cc(F)cc(F)c3)=NO2)CO1` (mixture of isomers) [I-42] was tested, and the “Post-emergence herbicidal activity against PHBPU in %” value (Pharbitis purpurea) was 90%, the “Pre-emergence herbicidal activity against ALOMY in %” value (Alopecurus myosuroides) was 100% and the “Post-emergence herbicidal activity against VIOTR in %” value (Viola tricolor) was 90%. The “Post-emergence herbicidal activity against HORMU in %” value (Hordeum murinum) was 100%, the “Pre-emergence herbicidal activity against AMARE in %” value (Amaranthus retroflexus) was 100% and the “Post-emergence herbicidal activity against SETVI in %” value (Setaria viridis) was 90%.
For `CCOC(=O)C1CC(NC(=O)C2(C)CC(c3cc(F)cc(F)c3)=NO2)CO1` (mixture of isomers) [I-43], the “Post-emergence herbicidal activity against PHBPU in %” value (Pharbitis purpurea) was 90%, the “Pre-emergence herbicidal activity against ALOMY in %” value (Alopecurus myosuroides) was 100% and the “Post-emergence herbicidal activity against VIOTR in %” value (Viola tricolor) was 90%. For the same compound, the “Post-emergence herbicidal activity against HORMU in %” value (Hordeum murinum) was 100%, the “Pre-emergence herbicidal activity against AMARE in %” value (Amaranthus retroflexus) was 90% and the “Post-emergence herbicidal activity against SETVI in %” value (Setaria viridis) was 80%.
In the case of `CC1(C(=O)NC2COC(C(=O)OCc3ccccc3)C2)CC(c2cc(F)cc(F)c2)=NO1` (mixture of isomers) [I-45], the “Post-emergence herbicidal activity against PHBPU in %” value (Pharbitis purpurea) is reported as 90%, the “Pre-emergence herbicidal activity against ALOMY in %” value (Alopecurus myosuroides) is reported as 100% and the “Post-emergence herbicidal activity against VIOTR in %” value (Viola tricolor) is reported as 90%. The “Post-emergence herbicidal activity against HORMU in %” value (Hordeum murinum) was 100%, the “Pre-emergence herbicidal activity against AMARE in %” value (Amaranthus retroflexus) was 100% and the “Post-emergence herbicidal activity against SETVI in %” value (Setaria viridis) was 90%.
`COC(=O)C1CC(NC(=O)C2(C)CC(c3cc(F)cc(F)c3)=NO2)CO1` (mixture of isomers) [I-48] was tested, and the “Post-emergence herbicidal activity against PHBPU in %” value (Pharbitis purpurea) was 80%, the “Pre-emergence herbicidal activity against ALOMY in %” value (Alopecurus myosuroides) was 100% and the “Post-emergence herbicidal activity against VIOTR in %” value (Viola tricolor) was 80%. For the same compound, the “Post-emergence herbicidal activity against HORMU in %” value (Hordeum murinum) was 90%, the “Pre-emergence herbicidal activity against AMARE in %” value (Amaranthus retroflexus) was 100% and the “Post-emergence herbicidal activity against SETVI in %” value (Setaria viridis) was 80%.
`CCOC(=O)[C@H]1C[C@@H](NC(=O)C2(C)CC(c3cccc(F)c3)=NO2)CO1` (mixture of isomers) [I-30, ethyl cis-4-[[(5RS)-3-(3-fluorophenyl)-5-methyl-4H-isoxazole-5-carbonyl]amino]tetrahydrofuran-2-carboxylate] showed a pest or weed control at 320 g/ha (Pharbitis purpurea) of 90%, a pest or weed control at 80 g/ha (Alopecurus myosuroides) of 100% and a pest or weed control at 320 g/ha (Hordeum murinum) of 100%. For the same compound, the pest or weed control at 80 g/ha (Amaranthus retroflexus) was 80% and the pest or weed control at 320 g/ha (Setaria viridis) was 90%.
Compound `CC(C)OC(=O)[C@H]1C[C@@H](NC(=O)C2(C)CC(c3cccc(F)c3)=NO2)CO1` (mixture of isomers) [I-32, isopropyl cis-4-[[(5RS)-3-(3-fluorophenyl)-5-methyl-4H-isoxazole-5-carbonyl]amino]tetrahydrofuran-2-carboxylate] has a pest or weed control at 320 g/ha (Pharbitis purpurea) of 90%, a pest or weed control at 80 g/ha (Alopecurus myosuroides) of 100% and a pest or weed control at 320 g/ha (Hordeum murinum) of 90%. It also gave a pest or weed control at 80 g/ha (Amaranthus retroflexus) of 90% and a pest or weed control at 320 g/ha (Setaria viridis) of 90%.
`C=CC1(C(=O)NC2=C(C(=O)OCC)COC2)CC(c2cc(F)cc(F)c2)=NO1` (centres unmarked) [I-23, ethyl 4-[[3-(3,5-difluorophenyl)-5-vinyl-4H-isoxazole-5-carbonyl]amino]-2,5-dihydrofuran-3-carboxylate] showed a pest or weed control at 320 g/ha (Pharbitis purpurea) of 90%, a pest or weed control at 80 g/ha (Alopecurus myosuroides) of 90% and a pest or weed control at 320 g/ha (Hordeum murinum) of 100%. The pest or weed control at 80 g/ha (Amaranthus retroflexus) was 80%.
For `COC(=O)C1COCC1NC(=O)C1(OC)CC(c2cc(F)cc(F)c2)=NO1` (centres unmarked) [I-27, methyl 4-[[3-(3,5-difluorophenyl)-5-methoxy-4H-isoxazole-5-carbonyl]amino]tetrahydrofuran-3-carboxylate], the pest or weed control at 320 g/ha (Pharbitis purpurea) was 80%, the pest or weed control at 80 g/ha (Alopecurus myosuroides) was 90% and the pest or weed control at 320 g/ha (Viola tricolor) was 80%. The pest or weed control at 80 g/ha (Amaranthus retroflexus) was 90% and the pest or weed control at 320 g/ha (Setaria viridis) was 80%.
For `COC(=O)C1COCC1NC(=O)[C@@]1(C)CC(c2cc(F)cc(F)c2)=NO1` (stereo partly drawn) [I-28, methyl 4-[[(5R)-3-(3,5-difluorophenyl)-5-methyl-4H-isoxazole-5-carbonyl]amino]tetrahydrofuran-3-carboxylate], the pest or weed control at 320 g/ha (Pharbitis purpurea) was 80%, the pest or weed control at 80 g/ha (Alopecurus myosuroides) was 100% and the pest or weed control at 320 g/ha (Viola tricolor) was 80%. It also gave a pest or weed control at 80 g/ha (Amaranthus retroflexus) of 90% and a pest or weed control at 320 g/ha (Setaria viridis) of 80%.
In the case of `COC(=O)C1COCC1NC(=O)C1(OC)CC(c2cc(Cl)cc(Cl)c2)=NO1` (centres unmarked) [I-29, methyl 4-[[3-(3,5-dichlorophenyl)-5-methoxy-4H-isoxazole-5-carbonyl]amino]tetrahydrofuran-3-carboxylate], the pest or weed control at 320 g/ha (Pharbitis purpurea) is reported as 80%, the pest or weed control at 80 g/ha (Alopecurus myosuroides) is reported as 90% and the pest or weed control at 320 g/ha (Viola tricolor) is reported as 80%. For the same compound, the pest or weed control at 80 g/ha (Amaranthus retroflexus) was 90% and the pest or weed control at 320 g/ha (Setaria viridis) was 80%.
